How the values were obtained:
[1] = test system: NACK binding to the Notch transcription complex; assay: CSL-DNA affinity precipitation (CSL-DAP) assay; type: cell-based, mouse; conditions: Y999F NACK and Q1024E NACK mutants (mouse NACK); FIG. 10D
Method: (§1) To determine the specificity of hit-to-lead compounds targeting NACK activity, it was evaluated whether iNACK can block NACK binding to the Notch complex by conducting CSL-DNA affinity precipitation (CSL-DAP) assay. […] In the CSL-DAP assay, 293T cells were co-transfected with N1^ICD, Maml1 and NACK. Transfections were performed using LipoJet transfection reagent (SL100468, SignaGen Laboratories) according to the manufacturer recommended protocol. After two days of transfection, cells were treated with compounds for 2 hours prior collecting the cell lysate. Cell lysates were incubated with DNA streptavidin beads. Proteins that bound to the beads were analyzed by Western blot.
(§2) Western blot was performed as described previously (See Weaver et al., Cancer Research 74, 4741-4751 (2014)). Primary antibodies were α-NACK (1:1,000; against aa209-287 of NACK and affinity purified), α-CSL (1:1,000; generated against full-length CSL and affinity purified), α-Maml1 (1:5,000; Cell Signaling Technology), α-cleaved-Notch1 (1:1,000; Cell Signaling Technology).

[2] = target: T1, NACK binding to the Notch transcription complex (Mus musculus, UniProt Q571I4); assay: CSL-DNA affinity precipitation (CSL-DAP) assay; type: cell-based
T1 construct: expressed in transfected cells; host or cells: 293T
T1 sequence (Q571I4 1-1373): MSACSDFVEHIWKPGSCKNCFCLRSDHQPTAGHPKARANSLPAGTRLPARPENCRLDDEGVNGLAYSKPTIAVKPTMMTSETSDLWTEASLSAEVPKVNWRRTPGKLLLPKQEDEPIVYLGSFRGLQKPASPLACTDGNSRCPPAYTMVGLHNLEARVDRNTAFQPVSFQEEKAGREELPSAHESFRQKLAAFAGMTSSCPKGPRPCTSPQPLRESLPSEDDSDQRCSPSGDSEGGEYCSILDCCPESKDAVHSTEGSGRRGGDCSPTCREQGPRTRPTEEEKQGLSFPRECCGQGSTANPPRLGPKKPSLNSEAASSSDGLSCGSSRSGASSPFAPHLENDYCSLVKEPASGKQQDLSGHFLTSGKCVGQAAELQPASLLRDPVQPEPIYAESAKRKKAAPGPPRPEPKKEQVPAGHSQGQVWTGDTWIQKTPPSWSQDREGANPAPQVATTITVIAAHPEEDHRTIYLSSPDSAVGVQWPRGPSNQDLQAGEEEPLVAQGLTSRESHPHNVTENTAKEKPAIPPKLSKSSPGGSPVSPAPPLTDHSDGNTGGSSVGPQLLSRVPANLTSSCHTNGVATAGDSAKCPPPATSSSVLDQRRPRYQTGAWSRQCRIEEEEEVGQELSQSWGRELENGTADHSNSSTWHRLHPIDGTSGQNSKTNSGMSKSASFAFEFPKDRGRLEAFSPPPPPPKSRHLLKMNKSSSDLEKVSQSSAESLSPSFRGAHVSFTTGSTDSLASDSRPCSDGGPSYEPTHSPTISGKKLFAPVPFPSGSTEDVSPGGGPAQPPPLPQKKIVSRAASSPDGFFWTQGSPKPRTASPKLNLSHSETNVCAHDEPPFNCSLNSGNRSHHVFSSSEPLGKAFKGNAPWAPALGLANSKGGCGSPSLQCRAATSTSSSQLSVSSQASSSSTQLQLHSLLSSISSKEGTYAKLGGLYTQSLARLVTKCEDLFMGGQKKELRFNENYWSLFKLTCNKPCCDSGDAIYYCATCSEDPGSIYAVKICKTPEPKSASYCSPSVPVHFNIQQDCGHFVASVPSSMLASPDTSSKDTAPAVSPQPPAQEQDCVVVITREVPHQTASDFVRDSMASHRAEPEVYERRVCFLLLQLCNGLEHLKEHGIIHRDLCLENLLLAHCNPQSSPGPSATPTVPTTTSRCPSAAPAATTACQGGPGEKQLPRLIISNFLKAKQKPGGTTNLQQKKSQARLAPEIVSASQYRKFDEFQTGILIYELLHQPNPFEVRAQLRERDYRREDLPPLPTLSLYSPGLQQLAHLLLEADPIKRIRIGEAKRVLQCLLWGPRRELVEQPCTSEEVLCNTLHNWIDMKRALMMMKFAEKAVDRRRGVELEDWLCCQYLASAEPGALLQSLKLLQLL
Method: as §1, §2

Compound: CCN(CC)C(=O)c1cnn2ccc(C3CCN(S(=O)(=O)c4ccc(NC(C)=O)cc4)CC3)cc12 [Compound Z271-0326, 5-(1-((4-acetamidophenyl)sulfonyl)piperidin-4-yl)-N,N-diethylpyrazolo[1,5-a]pyridine-3-carboxamide]
- recruitment of NACK to the Notch complex [1]: insensitive to inhibition
- inhibition of NACK binding to the Notch transcription complex ([2]; 293T cells transfected with N1ICD, Maml1, NACK, 2 hours treatment, FIG. 6A): dramatically inhibit NACK binding to the NOTCH transcription complex
- recruitment of NACK to the Notch ternary complex ([2]; WT NACK, FIG. 10D): block recruitment of NACK to the Notch ternary complex

From patent publication US12077508B2, “Inhibitors of the Notch transcriptional activation complex kinase (“NACK”) and methods for use of the same” (UNIVERSITY OF MIAMI, priority 2018, dated 2024)
